Assay results from article PMC8218635, “Structural Insights into the Mechanisms of Action of Functionally Distinct Classes of Chikungunya Virus Nonstructural Protein 1 Inhibitors” (Antimicrobial Agents and Chemotherapy, 2021).
Read-outs that look alike come from different tables or passages of the source.

Tests used:
CHIKV = test: microbe, parasite or virus in culture; type: cell-based
SFV = test: microbe, parasite or virus in culture; type: cell-based; conditions: multicycle CPE reduction assay, Vero E6 cells, NA = not active
rCHIKV P34S = type: cell-based, Chikungunya virus; conditions: for Fold resistance, rCHIKV P34S: (EC50 for the variant)/(EC50 for the wt); for EC50: CPE reduction assay, Vero E6 cells; for Sensitivity or resistance of CHIKV nsP1-P34S to the compound: at the concentrations tested, Fig. 2
rCHIKV G230R + K299E = type: cell-based, Chikungunya virus; conditions: for Fold resistance, rCHIKV G230R + K299E: (EC50 for the variant)/(EC50 for the wt); for EC50: CPE reduction assay, Vero E6 cells; for Sensitivity or resistance of CHIKV nsP1-G230R+K299E to the compound: Fig. 2
rCHIKV S454G + W456R = type: cell-based, Chikungunya virus; conditions: for Fold resistance, rCHIKV S454G + W456R: (EC50 for the variant)/(EC50 for the wt); for EC50: CPE reduction assay, Vero E6 cells; for Sensitivity or resistance of CHIKV nsP1-S454G+W456R to the compound: at the doses tested, Fig. 2
SINV = system: SINV; parameters: method as in PMID 31964798; conditions: cited from earlier work
wt SFV nsP1 [1] = target: T1, wt SFV nsP1 (Semliki forest virus, UniProt P08411); parameters: method as in PMID 31964798; conditions: cited from earlier work
T1 sequence (P08411 1-537 limits assumed): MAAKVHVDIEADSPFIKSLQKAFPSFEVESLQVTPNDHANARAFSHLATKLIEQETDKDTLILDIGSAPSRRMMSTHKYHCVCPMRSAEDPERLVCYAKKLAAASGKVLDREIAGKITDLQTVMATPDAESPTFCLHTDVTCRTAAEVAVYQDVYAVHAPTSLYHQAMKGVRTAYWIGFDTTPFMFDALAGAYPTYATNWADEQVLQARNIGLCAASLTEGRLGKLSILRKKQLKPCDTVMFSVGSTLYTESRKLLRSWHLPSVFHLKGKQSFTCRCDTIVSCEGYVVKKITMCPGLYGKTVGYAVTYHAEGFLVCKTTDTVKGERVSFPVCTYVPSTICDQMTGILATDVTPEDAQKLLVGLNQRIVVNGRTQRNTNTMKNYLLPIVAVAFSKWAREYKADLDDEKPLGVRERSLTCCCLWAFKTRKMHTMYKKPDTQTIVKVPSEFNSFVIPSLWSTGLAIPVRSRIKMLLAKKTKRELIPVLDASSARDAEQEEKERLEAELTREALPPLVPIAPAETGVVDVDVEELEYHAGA

wt SFV nsP1 [2] = target: T1, wt SFV nsP1; type: biochemical; conditions: for Inhibition of formation of the covalent [32P]m7GMP-nsP1 complex: wt SFV nsP1, 100 μM SAM, inhibitor 50 μM to 1 mM, Fig. 3A
wt CHIKV nsP1 = wt CHIKV nsP1 (Chikungunya virus, UniProt Q8JUX6); type: biochemical; conditions: wt CHIKV nsP1, 10 μM SAM; for Inhibition of formation of the covalent [32P]m7GMP-nsP1 intermediate: inhibitor 0.5 to 32 μM, Fig. 3C
in vitro = conditions: African green monkey
VEEV nsP1 = conditions: cited from earlier work
CHIKV nsP1 = conditions: enzymatic assays measuring either MTase or GTase activity; cited from earlier work
[3] = Chikungunya virus, Vero C1008, 96 h, read-out: EC50, concentration that reduces virus-induced CPE by 50%, CHIKV, multicycle CPE reduction assay, Vero E6 cells, 96 h
[4] = Chikungunya virus, Vero C1008, read-out: EC50 for wt CHIKV, Table 2, wt CHIKV, CPE reduction assay, Vero E6 cells

Compound	Fold resistance, rCHIKV P34S (rCHIKV P34S)	EC50 (rCHIKV P34S) [µM]	Fold resistance, rCHIKV G230R + K299E (rCHIKV G230R + K299E)	EC50 (rCHIKV G230R + K299E) [µM]	Sensitivity or resistance of CHIKV nsP1-G230R+K299E to the compound (rCHIKV G230R + K299E)	Fold resistance, rCHIKV S454G + W456R (rCHIKV S454G + W456R)	EC50 (CHIKV; [3]) [nM]	EC50 (CHIKV; [4]) [nM]	EC50 (rCHIKV S454G + W456R) [µM]	Sensitivity or resistance of CHIKV nsP1-S454G+W456R to the compound (rCHIKV S454G + W456R)	Inhibition of formation of the covalent [32P]m7GMP-nsP1 complex (wt SFV nsP1 [2])	Inhibition of formation of the covalent [32P]m7GMP-nsP1 intermediate (wt CHIKV nsP1)	CC50 (Vero E6 cells; African green monkey) [µM]	CC50 (in vitro) [µM]	Sensitivity or resistance of CHIKV nsP1-P34S to the compound (rCHIKV P34S)	further results
6′-β-Fluoro-homoaristeromycin [FHA]	2.3	1.6 ± 0.2	14.3	> 10	resistant	1	–	–	–	–	–	–	–	–	–	EC50 (CHIKV; CHIKV, multicycle CPE reduction assay, Vero E6 cells, 96 h, read-out: EC50, concentration that reduces virus-induced CPE by 50%): 700 ± 80 nM; EC50 (CHIKV; Table 2, wt CHIKV, CPE reduction assay, Vero E6 cells, read-out: EC50 for wt CHIKV): 700 ± 80 nM; EC50 (SFV; 32 h): 3.9 ± 3.5 µM; CC50 (Vero E6 cells): > 250 µM; Activity against SINV (SINV): inactive
Nc1ncnc2c1ncn2C1C(F)=C(CCO)C(=O)C1O (stereo not drawn) [3′-Keto form of FHNA]	–	–	–	–	–	–	–	–	–	–	–	–	–	–	–	Inhibition of formation of the covalent [32P]m7GMP-nsP1 intermediate (wt SFV nsP1 [1]; wt SFV nsP1): only partially inhibited
CCNc1nc(C)cc(N2CCN(C(=O)c3ccc(F)cc3)CC2)n1 [CHVB-032]	14.4	52.4 ± 0.8	1	3.4 ± 0.2	–	29.4	3400 ± 300	3400 ± 300	> 100	completely resistant	completely blocked	in a dose-dependent manner	> 100	> 100	–	–
CCNc1nc(C)cc(N2CCN(C(=O)c3ccc(C)cc3)CC2)n1 [CHVB-066]	20.8	> 12.5	<1	0.3 ± 0.04	–	20.8	< 1000	600 ± 100	> 12.5	–	completely blocked	in a dose-dependent manner	–	25	completely resistant	Inhibition of GTase activity of VEEV nsP1 (VEEV nsP1): inhibit the GTase activity
Nc1ncnc2c1ncn2C1C(F)=C(CCO)C(O)C1O (stereo not drawn) [FHNA, 6′-fluoro-homoneplanocin A]	2.4	2.8 ± 0.3	8.6	> 10	resistant	1	1200 ± 30	1200 ± 30	1.2 ± 0.1	–	–	–	> 250	> 250	–	EC50 (SFV; Semliki Forest virus, Vero C1008, 32 h): 3.9 to 5.2 µM; EC50 (SFV; 32 h): 5.2 ± 3.2 µM; Reduction of the [32P]m7GMP-nsP1 signal (wt CHIKV nsP1; with or without DTT, 12.5 to 500 μM compound, Fig. 3E): no reduction in the signal; Inhibition of formation of the covalent [32P]m7GMP-nsP1 intermediate (wt SFV nsP1 [1]; modified SFV nsP1 assay lacking DTT, not shown): to a lesser extent; Activity against SINV (SINV): inactive
CNc1ncnc2c1ncn2C1C(O)C(O)C(CCO)C1F (stereo not drawn) [FMA, 6′-β-fluoro-N^6-methyladenosine]	–	–	–	–	–	–	–	–	–	–	–	–	–	–	–	Activity in CHIKV CPE reduction assays (CHIKV; source of the data not stated): inactive
NC(=O)c1nc(F)c[nH]c1=O [Favipiravir, reference compound]	1.2	95.9 ± 12.8	1.7	135 ± 5	sensitive	1.1	–	79800 ± 1400	89.5 ± 0.2	sensitive	–	–	–	–	sensitive	–
CCC1=NC2C(N=NN2c2cccc(OC(C)C)c2)C(=O)N1 (stereo not drawn) [MADTP-372]	9.3	> 25	<1	1.2 ± 0.2	–	9.3	2700 ± 200	2700 ± 200	> 25	cross-resistant	less effectively	in a dose-dependent manner	> 100	> 100	completely resistant	Inhibition of GTase activity of VEEV nsP1 (VEEV nsP1): inhibit the GTase activity
Nc1ncnc2c1ncn2[C@@H]1O[C@H](C[C@@H](N)CC[C@H](N)C(=O)O)[C@@H](O)[C@H]1O [Sinefungin, reference compound]	<1	151 ± 2.5	1.5	274.5 ± 0.2	sensitive	<1	185000 ± 38400	185000 ± 38400	110 ± 3.9	sensitive	very inefficient inhibitor	–	> 1000	> 1000	sensitive	Effect on GTase activity in reactions lacking SAM (wt SFV nsP1 [2]; wt SFV nsP1, 50 μM sinefungin, no SAM, Fig. 3B): appeared to stimulate GTase activity; Reduction of the [32P]m7GMP-nsP1 signal (wt CHIKV nsP1; 1 mM compound, Fig. 3D): reduced the signal slightly; Reduction of the [32P]m7GMP-nsP1 signal (wt CHIKV nsP1; 125 to 500 μM compound, Fig. 3D): did not lead to any reduction in the signal; Inhibition of VEEV nsP1 (VEEV nsP1): inhibits; Inhibition of CHIKV nsP1 (CHIKV nsP1): inhibits
